Legend:
TNFα = TNFα release in LPS-stimulated RAW 264.7 cells; type: cell-based; details: Mus musculus, RAW264.7, LPS 10 ng/ml, 2.5 hours, compound pre-incubation 1 hour, read-out: TNF-alpha IC50
Description: (§1) Assay for TNFα and MCP-1 Release in RAW 264.7 Cells:
(§2) Cells were seeded at a density of 50000 cells/well/100 μl in a 96 well plate and left overnight in the CO2 incubator under normal cell culture conditions for adherence. Next day, old media was removed and fresh media added per well with compounds in duplicate for 1 hour with 0.1% DMSO. Cells were stimulated with LPS (Lipopolysaccharides) at 10 ng/ml and incubated at cell culture conditions for 2.5 hours. Post incubation, the supernatant was collected in fresh 96 well plate and stored at −80 degree for TNF-α, and MCP-1 estimation.
(§3) The dose-response curve was analyzed using Sigma Plot/Graph Pad. The IC50 (concentration of the test compounds where 50% of compounds' maximal activity is observed) values were calculated from the dose-response curve.

MCP-1 = MCP-1 release in LPS-stimulated RAW 264.7 cells; type: cell-based; details: Mus musculus, RAW264.7, LPS 10 ng/ml, 2.5 hours, compound pre-incubation 1 hour
Description: as §1, §2, §3

Row | SMILES | IC50 (TNFα) [nM] | IC50 (MCP-1) [nM]
1 | CC1(c2ccc(-c3ccc(F)cc3COc3ccc(CCCC(=O)O)cc3)cc2)CC1 [SI. No. 2, 4-(4-((4-Fluoro-4′-(1-methylcyclopropyl)-[1,1′-biphenyl]-2-yl)methoxy)phenyl)butanoic acid] | 5650 | 290
2 | O=C(O)CCCc1ccc(OCc2cc(F)ccc2-c2ccc(C3CC3)s2)cc1 [SI. No. 8, 4-(4-((2-(5-Cyclopropylthiophen-2-yl)-S-fluorobenzyl)oxy)phenyl)butanoic acid] | > 10000 | 2040
3 | CC1(c2ccc(-c3ccc(F)cc3COc3ccc(CCCC(=O)O)cc3)s2)CC1 [SI. No. 20, 4-(4-((5-Fluoro-2-(5-(1-methylcyclopropyl)thiophen-2-yl)benzyl)oxy)phenyl) butanoic acid] | 660 | 1080
4 | O=C(O)CCCc1ccc(OCc2cc(F)ccc2-c2ncc(C3CC3)s2)cc1 [SI. No. 24, 4-(4-((2-(5-Cyclopropylthiazol-2-yl)-S-fluorobenzyl)oxy)phenyl)butanoic acid] | 630 | 230

Source: patent publication US20210236443A1, “METHOD OF TREATMENT OF NON-ALCOHOLIC STEATOHEPATITIS, NASH” (KRISH BIOTECH RESEARCH PRIVATE LIMITED, priority 2018, published 2021)
